The values that follow come from the supplement of paper PMC10307832.

Assay in all cases: relative viability (nuclei count vs DMSO), 5 days (fraction); higher = more cells survive
Compound in assay [1]: CC(C)C[C@H](NC(=O)[C@H](Cc1ccccc1)NC(=O)c1cnccn1)B(O)O [Bortezomib] + CC(=O)c1c(C)c2cnc(Nc3ccc(N4CCNCC4)cn3)nc2n(C2CCCC2)c1=O [Palbociclib] (partner 0.5 µM)
The gist of the method: (§1)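 After 5 days of treatment, lung cancer cells in 1536-well plates were fixed and stained in a single step (final 0.05% Triton X-100, 1% formaldehyde, 1 ug/ml Hoechst) and their nuclei counted on 4× images. Treatment had been applied by pin tool the day after seeding as one drug alone or as a fixed anchor-drug dose with five library-drug doses (not always all listed) in √10 steps. Relative viability is the nuclei count of treated wells divided by that of vehicle wells, and values are medians of duplicate plates.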

Compound in assay [2]: CC1=CC(=NN1)NC2=CC(=NC(=N2)/C=C/C3=CC=CC=C3)N4CCN(CC4)C + CCNC(=O)c1noc(-c2cc(C(C)C)c(O)cc2O)c1-c1ccc(CN2CCOCC2)cc1 [Luminespib] (partner 0.01 µM)
The gist of the method:
as §1

Compound in assay [3]: CC1=CC(=NN1)NC2=CC(=NC(=N2)/C=C/C3=CC=CC=C3)N4CCN(CC4)C + C[C@@H](Oc1cc(-c2cnn(C3CCNCC3)c2)cnc1N)c1c(Cl)ccc(F)c1Cl [Crizotinib] (partner 1 µM)
The procedure, abridged: as §1

Compound in assay [4]: COC1=CC(c2cc3ccccc3[nH]2)=N/C1=C\c1[nH]c(C)cc1C [Obatoclax] + CS(=O)(=O)CCNCc1ccc(-c2ccc3ncnc(Nc4ccc(OCc5cccc(F)c5)c(Cl)c4)c3c2)o1 [Lapatinib] (partner 2 µM)
The gist of the method: as §1

Turning to NCI-H650, the relative viability stood at 0.335 in assay [1] (first compound 0.0002 µM); 0.27 in assay [1] (first compound 0.000632 µM); 0.31 in assay [1] (first compound 0.002 µM); 0.243 in assay [1] (first compound 0.006325 µM); 0.149 in assay [1] (first compound 0.02 µM); 0.915 in assay [2] (first compound 0.253 µM). The relative viability in assay [2] (first compound 0.8 µM) turned out to be 0.813; in assay [2] (first compound 2.53 µM), 0.411; in assay [2] (first compound 8 µM) it was 0.111; in assay [3] (first compound 0.08 µM) it was 0.916; in assay [3] (first compound 0.253 µM), 0.739; in assay [3] (first compound 0.8 µM), 0.515. Also, the relative viability in assay [3] (first compound 2.53 µM) stood at 0.358; in assay [3] (first compound 8 µM), 0.188; in assay [4] (first compound 0.01 µM) it was 1.04; in assay [4] (first compound 0.03162 µM), 0.811; in assay [4] (first compound 0.1 µM) it was 0.438; in assay [4] (first compound 0.3162 µM), 0.511. The relative viability in assay [4] (first compound 1 µM) was 0.457.
